Measurements as given in patent US8586591B2, “Aminopyrazine derivative and medicine” (Nippon Shinyaku Co., Ltd., priority 2009, dated 2013).
Structures can show the parent of a compound that is named as a salt. Where two headings read alike, the source gives them in different places.

Tests used:
[1] = target: BaF3 cells into which JAK2 V617F gene was introduced (Homo sapiens, UniProt O60674, V617F, cells depend on it); test: Test 2: growth inhibitory action against variant JAK2 expressed cells (MTT method); assay type: cell-based; settings: incubation for 3 days, triplicate, read-out: concentration of the test material which inhibited 50% of the cell growth (IC50)
Sequence of BaF3 cells into which JAK2 V617F gene was introduced (O60674 whole entry V617F): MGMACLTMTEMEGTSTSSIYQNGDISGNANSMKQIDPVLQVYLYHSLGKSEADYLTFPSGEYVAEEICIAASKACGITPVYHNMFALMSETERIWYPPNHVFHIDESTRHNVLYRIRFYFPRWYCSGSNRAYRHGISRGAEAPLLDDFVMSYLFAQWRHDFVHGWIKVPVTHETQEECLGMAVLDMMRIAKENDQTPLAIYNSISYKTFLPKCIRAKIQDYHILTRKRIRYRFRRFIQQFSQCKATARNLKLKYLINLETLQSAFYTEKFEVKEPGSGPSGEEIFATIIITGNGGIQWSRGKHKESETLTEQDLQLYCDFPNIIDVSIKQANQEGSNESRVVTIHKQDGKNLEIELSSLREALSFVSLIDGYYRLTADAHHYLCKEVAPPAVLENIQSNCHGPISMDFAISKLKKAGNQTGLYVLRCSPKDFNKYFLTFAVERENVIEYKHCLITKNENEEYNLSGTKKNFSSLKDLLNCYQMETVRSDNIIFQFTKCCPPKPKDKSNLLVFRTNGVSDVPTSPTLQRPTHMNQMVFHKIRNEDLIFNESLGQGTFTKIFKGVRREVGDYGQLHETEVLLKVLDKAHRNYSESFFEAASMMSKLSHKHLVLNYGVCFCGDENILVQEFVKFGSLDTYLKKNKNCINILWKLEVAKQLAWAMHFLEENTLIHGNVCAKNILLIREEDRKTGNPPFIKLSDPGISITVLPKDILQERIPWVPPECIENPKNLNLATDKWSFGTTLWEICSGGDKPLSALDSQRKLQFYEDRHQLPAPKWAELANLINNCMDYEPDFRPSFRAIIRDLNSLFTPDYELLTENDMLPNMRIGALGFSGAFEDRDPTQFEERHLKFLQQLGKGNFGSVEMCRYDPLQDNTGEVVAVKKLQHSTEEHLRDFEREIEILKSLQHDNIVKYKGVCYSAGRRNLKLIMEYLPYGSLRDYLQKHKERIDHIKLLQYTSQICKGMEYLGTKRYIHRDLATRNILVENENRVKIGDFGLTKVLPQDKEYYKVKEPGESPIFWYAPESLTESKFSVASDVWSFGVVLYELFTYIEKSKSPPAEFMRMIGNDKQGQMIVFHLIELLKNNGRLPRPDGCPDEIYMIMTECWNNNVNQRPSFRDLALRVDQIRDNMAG
Description: Test 2: Growth inhibitory action against variant JAK2 expressed cells
BaF3 cells into which JAK2 V617F gene was introduced ([…]) were inoculated on a 96-well plate in an amount of 1×10^3 cells/well and allowed to stand in a CO2 incubator. Next day, the test material was added to the cells. The test material was serially diluted with DMSO to give 10 mM, 6 mM, 3 mM, 1 mM, 600 μM, 300 μM, 100 μM, 60 μM, 30 μM, or 10 μM solution. This was diluted 100 times with distilled water to give 100 μM, 60 μM, 30 μM, 10 μM, 6 μM, 3 μM, 1 μM, 600 nM, 300 nM, or 100 nM solution. This solution of test material was added to the well in an amount of 10 μl/well. As a negative control, 1% DMSO solution was added to the well in an amount of 10 μl/well. In the above operation, the final concentration of the test material became 10 μM, 6 μM, 3 μM, 1 μM, 600 nM, 300 nM, 100 nM, 60 nM, 30 nM, 10 nM, or 0 nM (0.1% DMSO solution). The addition of the test material solution to each well was made in triplicate.
After continuous incubation for 3 days, the viable count was determined by an MTT method. The MTT method was carried out as follows. First, 10 μl each of solution containing 5 mg/ml of MTT (3-(4,5-dimethylthiazol-2-yl)-2,5-diphenyltetrazolium bromide) was added to each well. The plate was allowed to stand in a CO2 incubator for 4 hours, and then 100 μl of 0.04N HCl/2-propanol solution was added to each well to stop the reaction. The generated MTT-formazan was dissolved well with a multi-channel pipette, and the absorbance at 595 nm was measured with reference to that at 655 nm (Thermo Co.; Multiskan FC). Non-linear regression analysis was made by means of a SAS system (SAS Institute Inc.), and the concentration (IC50) of the test material which inhibited 50% of the cell growth was estimated.

JAK3 tyrosine kinase = target: T1, JAK3 tyrosine kinase (Homo sapiens, UniProt P52333); test: Test 1: inhibitory activity to JAK3 tyrosine kinase (ELISA); assay type: biochemical; settings: 25 μM ATP in substrate solution, 30° C. for 1 hour, n=2
T1 construct: purchased Carnabioscience Co
T1 sequence (P52333 1-1124): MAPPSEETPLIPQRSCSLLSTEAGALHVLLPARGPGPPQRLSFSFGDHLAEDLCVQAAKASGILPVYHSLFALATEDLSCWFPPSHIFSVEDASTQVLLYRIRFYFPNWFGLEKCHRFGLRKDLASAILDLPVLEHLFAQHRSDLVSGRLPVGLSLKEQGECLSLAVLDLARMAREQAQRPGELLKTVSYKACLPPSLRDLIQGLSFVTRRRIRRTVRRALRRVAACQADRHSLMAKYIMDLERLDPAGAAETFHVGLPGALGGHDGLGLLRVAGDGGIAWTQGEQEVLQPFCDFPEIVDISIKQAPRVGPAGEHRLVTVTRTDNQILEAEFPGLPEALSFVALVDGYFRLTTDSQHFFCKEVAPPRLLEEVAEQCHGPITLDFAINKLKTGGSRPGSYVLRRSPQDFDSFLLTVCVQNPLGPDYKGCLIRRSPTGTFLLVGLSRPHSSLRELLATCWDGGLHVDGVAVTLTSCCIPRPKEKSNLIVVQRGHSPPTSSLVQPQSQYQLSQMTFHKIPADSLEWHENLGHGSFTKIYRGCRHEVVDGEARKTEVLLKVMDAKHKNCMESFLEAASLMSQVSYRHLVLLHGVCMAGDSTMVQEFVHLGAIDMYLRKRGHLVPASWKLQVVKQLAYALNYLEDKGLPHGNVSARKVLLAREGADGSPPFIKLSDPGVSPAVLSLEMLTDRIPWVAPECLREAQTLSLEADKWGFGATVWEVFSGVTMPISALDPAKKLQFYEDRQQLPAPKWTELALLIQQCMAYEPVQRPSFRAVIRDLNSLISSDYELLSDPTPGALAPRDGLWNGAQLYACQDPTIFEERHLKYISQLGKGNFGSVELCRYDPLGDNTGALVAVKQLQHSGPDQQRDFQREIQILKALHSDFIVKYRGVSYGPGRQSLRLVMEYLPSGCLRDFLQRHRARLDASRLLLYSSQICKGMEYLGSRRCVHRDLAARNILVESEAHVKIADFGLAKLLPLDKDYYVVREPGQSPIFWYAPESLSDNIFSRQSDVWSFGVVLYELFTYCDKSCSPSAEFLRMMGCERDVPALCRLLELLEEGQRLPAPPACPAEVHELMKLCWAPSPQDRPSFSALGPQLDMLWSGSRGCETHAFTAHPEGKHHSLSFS
Procedure, shortened: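 ELISA of JAK3 kinase activity with absorbance read at 450 nm. Compounds were tested from DMSO dilution series at 100-fold the measurement concentrations (1000–0.01 μM), diluted up to 20 times in assay buffer, against a DMSO negative control. IC50 was estimated by non-linear regression of absorbance.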

JAK2 tyrosine kinase = target: T2, JAK2 tyrosine kinase (Homo sapiens, UniProt O60674); test: Test 1: inhibitory activity to JAK2 tyrosine kinase (ELISA); assay type: biochemical; settings: 25 μM ATP in substrate solution, 30° C. for 1 hour, n=2
T2 construct: purchased Carnabioscience Co
T2 sequence (O60674 whole entry): as the sequence (O60674 whole entry V617F) above, with F617V counted along it
Procedure, shortened: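 This is an ELISA read at A450 (HRP anti-phosphotyrosine antibody, TMB) of biotin-peptide phosphorylation captured on streptavidin. Enzyme solution was 0.75 nM JAK2, and the substrate solution was 625 nM peptide with 25 μM ATP in Tris pH 7.5 buffer. The reaction ran 1 h at 30 °C with compounds in duplicate, and IC50 was fitted non-linearly.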

Row | SMILES | GI50 [1] [nM] | IC50 (JAK3 tyrosine kinase) [nM] | IC50 (JAK2 tyrosine kinase) [nM] | GI50 ([1]; maleate) [nM]
1 | C[C@H](Nc1nc(Nc2cnccn2)cc(N2CCNC(=O)C2)n1)c1ccc(F)cc1 [Example 1, (S)-4-{2-[1-(4-Fluorophenyl)ethylamino]-6-(pyrazin-2-ylamino)pyrimidin-4-yl}piperazin-2-one] | 83 | 45 | 0.94 | –
2 | C[C@H](Nc1cc(-c2cnn(C)c2)cc(Nc2cnccn2)n1)c1ccc(F)cc1 [Example 30, (S)—N^2-[1-(4-Fluorophenyl)ethyl]-4-(1-methyl-1H-pyrazol-4-yl)-N^6-(pyrazin-2-yl)pyridine-2,6-diamine maleate] | – | 75 | 1.5 | 60

Next, values leading:

Row | GI50 [1] [nM] | IC50 (JAK3 tyrosine kinase) [nM] | IC50 (JAK2 tyrosine kinase) [nM] | GI50 ([1]; maleate) [nM] | SMILES
3 | 97 | 33 | 0.59 | – | CCS(=O)(=O)NCC1CN(c2cc(Nc3cnccn3)nc(N[C@@H](C)c3ccc(F)cc3)n2)C1 [Example 231, (S)—N-[(1-{2-[1-(4-Fluorophenyl)ethylamino]-6-(pyrazin-2-ylamino)pyrimidin-4-yl}azetidin-3-yl)methyl]ethane sulfonamide]
4 | 70 | 26 | 0.39 | – | C[C@H](Nc1nc(Nc2cnccn2)cc(N2CC(O)(C3CC3)C2)n1)c1ccc(F)cc1 [Example 200, (S)-3-Cyclopropyl-1-{2-[1-(4-fluorophenyl)ethylamino]-6-(pyrazin-2-ylamino)pyrimidin-4-yl}azetidin-3-ol hydrochloride]
5 | 53 | 29 | 0.84 | – | C[C@H](Nc1nc(Nc2cnccn2)cc(N2CCC(O)C2)n1)c1ccc(F)cc1 (stereo partly drawn) [Example 50, 1-{2-[(S)-1-(4-Fluorophenyl)ethylamino]-6-(pyrazin-2-ylamino)pyrimidin-4-yl}pyrrolidin-3-ol hydrochloride]
